In patent publication US20130216585A1, “COMPOSITION AND METHODS FOR QUENCHING FREE RADICALS AND MODULATING INFLAMMATION” (FLAVITPURE, INC., priority 2012, published 2013):

Key:
[1] = tested on: bacterial mutagenicity; settings: bacterial mutagenicity tests, cited from earlier work
[2] = tested on: 8-hydroxy-2′-deoxyguanosine; settings: Fenton reaction catalyzed by copper; cited from earlier work
[3] = clinical feedback, usually females; cited from earlier work
[4] = tested on: human lung embryonic fibroblasts (TIG-1); settings: TIG-1 cells; cited from earlier work
[5] = ORAChydro (Oxygen Radical Absorbance Capacity) assay; type: physicochemical
Text: (§1) Dihydroquercetin is a:far more powerful antioxidant than vitamins A, C and E, as indicated by its comparative USDA ranking of the Oxygen Radical Absorbance Capacity (ORAC) and supported by other additional studies such as Cell-based Antioxidant Protection (CAP-e) assay against peroxyl radical, which is used to test whether natural products contain antioxidants capable of entering into and protecting live cells from oxidative damage.
(§2) The majority of HAT-based assays apply a competitive reaction scheme, in which antioxidant and substrate compete for thermally generated peroxyl radicals through the decomposition of azo compounds. ORAC and CAP-e can also be applied as an assays for the inhibition of induced low-density lipoprotein oxidation and other oxygen radical absorbances. […]
(§3) Among all the HAT-based assays, ORAC and CAP-e adopted an AUC (area under curve) technique to quantify antioxidant capacity. […]
(§4) Therefore, the ORAC and CAP-e assays has been broadly applied in academics and the food and supplement industry as the method of choice to quantify antioxidant capacity. […] The ORAChydro value of our dihydroquercetin has been measured at is 3,890 micromole of Trolox equivalent per […] capsule or 28,000 micromole Trolox equivalent per gram. The CAP-e value of our dihydroquercetin has been measured at is 9.9 CAP-e units per gram.

[6] = tested on: peroxyl radical; assay: Cell-based Antioxidant Protection (CAP-e) assay; settings: per gram
Text: as §1, §2, §3, §4

[7] = tested on: umbilical vein endothelial (HUVE) cells; settings: cited from earlier work

O=c1c(O)c(-c2ccc(O)c(O)c2)oc2cc(O)cc(O)c12 [quercetin, reference compound]
minimum mutagenic dose [1]: 4 nml

catechin [reference compound]
pro-oxidant activity [2]: did not present pro-oxidant activity

Larch Arabinogalactan
occasional reaction of bloating and flatulence, share of individuals [3]: less than three percent

O=C1c2c(O)cc(O)cc2O[C@H](c2ccc(O)c(O)c2)[C@H]1O [Dihydroquercetin]
50% lethal concentration [4]: > 300 µmol
ORAChydro value ([5]; per 412.3 mg capsule): 3,890 micromole of Trolox equivalent per 412.3 mg capsule
ORAChydro value ([5]; per gram): 28,000 micromole Trolox equivalent per gram
CAP-e value [6]: 9.9 CAP-e units per gram
times less mutagenic than quercetin ([1]; relative to quercetin): 400 times
minimum mutagenic dose [1]: 1626 nmol
pro-oxidant activity [2]: did not present pro-oxidant activity
50% lethal concentration [7]: > 200 µmol
